Assay results published in PubChem BioAssay (NCI).
Several values for one entry are separate records, joined by “and”; a condition that tells them apart may be missing. Identical values can stand only once.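 Five concentrations, 48 hours, 96-well plates. Here, GI50 denotes the concentration required for 50% inhibition of growth. TGI marks complete inhibition of growth.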

Tested on: MDA-MB-468 breast
Assay: inhibition of tumour cell growth, NCI panel, 48 h

| SMILES | GI50 | TGI |
| --- | --- | --- |
| OCc1cn(Cc2ccc(Cl)cc2)c2ccccc12 | < 0.01 µM | – |
| CC(C)Cc1ccc(C(C)C(=O)NCc2ccc(Cn3c(=O)sn(CCCCl)c3=O)cc2)cc1 (stereo not given) | 1.35 µM | 3.01 µM |
| COc1ccc(-c2cc(=O)oc3ccc(Cl)cc23)cc1F | 0.11 µM and 0.0295 µM | 0.644 µM and 0.0979 µM |
| COc1ccc(C(=O)/C=C/c2c(OC)cc(OC)cc2OC)c(OC)c1 | 1.59 µM | 4.66 µM |
| CC(=O)OC[C@H]1OC(O)C=C[C@@H]1OC(C)=O (stereo not given in full) | 82.5 µM | 180 µM |
| COc1ccc(-c2nn(C(=O)NCCN(C)C)cc2-c2ccncc2)cc1Cl | 1.95 µM | 11.7 µM |
| CC(C)Sc1nc(Nc2ccc(S(N)(=O)=O)cc2)c(C#N)c(-c2ccc(F)cc2)n1 | 4.59 µM | 18 µM |
| Nc1ccn(C2OC(CO)C(O)C2(F)F)c(=O)n1 (stereo not given) | 0.018 µM | 0.0558 µM |
| O=C1Nc2ccccc2/C1=C/C(=O)c1ccc(N2CCCC2)cc1 | 1.96 µM | 6.59 µM |
| Cc1ccc(C(=Nc2ccccc2)N=P(c2ccccc2)(c2ccccc2)c2ccccc2)cc1 | 0.944 µM | 4.3 µM |
| O=C1c2ccccc2C(=O)c2c(Nc3ccc(CCO)cc3)ccc(O)c21 | 1.43 µM | 22.8 µM |
| CS(=O)(=O)Nc1cc(-c2ccc3ncc(C#N)c(Nc4cccc(Cl)c4F)c3c2)cnc1Cl | 0.116 µM | 1.39 µM |
| COc1ccc(O)c2c(=O)c3c(OC)cc4c(c3oc12)[C@@H]1C=CO[C@@H]1O4 | 0.131 µM | 0.447 µM |
| CCN(Cc1ccccc1F)c1ccc(CO)c(Cl)c1 | – | 0.013 µM |
| CCN(Cc1cccnc1)c1ccc(CO)c(Cl)c1 | 0.029 µM | 0.104 µM |
| Cc1ccc(C(=O)Nc2ccc(CNCCN3CCOCC3)c(C(F)(F)F)c2)cc1C#Cc1cnc2cccnn12 | 2.15 µM | 6.19 µM |
| O=C(CI)OCC(COC(=O)CI)OC(=O)CI | 2.34 µM | 7.91 µM |
| Nc1ncc(-c2ccc3ncnc(N4CCc5ccc(Cl)cc54)c3c2)cn1 | 0.479 µM | 2.08 µM |

| SMILES | GI50 | TGI |
| --- | --- | --- |
| CC12OC(CC(O)C1O)n1c3ccccc3c3c4c(c5c6ccccc6n2c5c31)C(=O)N(CCN1CCCC1)C4=O (stereo not given) | 1 µM | 3.11 µM |
| CS(=O)(=O)Nc1ccc(Nc2c3ccccc3nc3cc([N+](=O)[O-])ccc23)cc1 | 0.304 µM | 2.02 µM |
| C/C(=N\NC(=O)c1ccc(C(C)(C)C)cc1)c1ccc(O)cc1O | 1.02 µM | 5.1 µM |
| CCN(CC)c1ccc(C2=NN(C(C)=O)C(c3cc(OC)c(OC)c(OC)c3)C2)cc1 (stereo not given) | 0.256 µM | 4.1 µM |
| COC1C(O)CC(OC2CC(OC3CC(O[C@@H]4C(=O)c5c(cc6cc(OC7CC(OC8CC(O)C(O)C(C)O8)C(O)C(C)O7)c(C)c(O)c6c5O)CC4[C@H](OC)C(=O)C(C)=O)OC(C)C3O)OC(C)C2O)OC1C (stereo not given in full) | 0.0161 µM | 0.0521 µM |
| OCCCc1n(Cc2ccc3ccccc3c2)c2ccccc2[n+]1Cc1ccc2ccccc2c1 | 0.291 µM | 1.37 µM |
| Fc1ccc(-c2nc(C(Cl)Cl)nc3cc(-c4ccccc4)nn23)cc1 | 2.14 µM | 4.95 µM |
| CCOC(=O)c1ccc2c(c1)nc(-c1ccc(Cl)cc1)n2-c1cc(C(C)(C)C)[nH]n1 | 2.12 µM | 8.18 µM |
| C#CCN(C)CCCOc1ccc(NC(=O)CCCCCCC(=O)NO)cc1Cl | 0.853 µM | 4.98 µM |
| COc1cc2cc(c1Cl)N(C)C(=O)C[C@H](OC(=O)[C@H](C)N(C)C(=O)CCS)C[C@]1(C)O[C@H]1[C@H](C)[C@@H]1C[C@@](O)(NC(=O)O1)[C@H](OC)/C=C/C=C(\C)C2 | < 0.005 µM | < 0.005 µM |
| Cc1nc2ccc(Nc3nc(Cl)nc(Nc4ccc(F)cc4)n3)cc2n1Cc1ccccc1 | 1.86 µM | 3.78 µM |
| CCOC(=O)C1=C(C)N=C2SC=C(c3ccccc3)N2[C@H]1c1cn[nH]c1-c1ccc(Cl)cc1 | 3.54 µM | 16.6 µM |
| COc1cc(/C=C2\CN(S(=O)(=O)c3ccc(C)cc3)C/C(=C\c3cc(CN4CCOCC4)c(O)c(OC)c3)C2=O)cc(CN2CCOCC2)c1O | 4.05 µM | > 100 µM |
| Cc1ccc2c(n1)C(=O)C(Cl)=C(Nc1cccc(C)c1C)C2=O | 1.53 µM | 3.25 µM |
| COc1cccc(C(=O)c2sc(Nc3ccc(N4CCN(C(C)C)CC4)cc3)nc2N)c1 | 1.62 µM | 9.22 µM |
| CS(=O)(=O)c1ccc(Oc2cc(F)cc(C#N)c2)c2c1[C@H](O)[C@H](F)[C@H]2F | > 100 µM | > 100 µM |
| Cc1ccc(/C=C2\COc3ccc(O)c(O)c3C2=O)cc1 | 0.907 µM | 2.99 µM |
| COc1ccc([As]=[As]c2ccc(OC)c(NCS(=O)(=O)O)c2)cc1NCS(=O)(=O)O (stereo not given) | 1.29 µM | 3.06 µM |
